Patent publication US20150274751A1, “TREATMENT OF S[…] AN INHIBITOR OF CBP/CATENIN” (PRISM Pharma Co., Ltd., priority 2012, published 2015)

Assays:
[1] = tested on: bleomycin-induced dermal fibrosis; assay: murine model of bleomycin-induced dermal fibrosis (histopathology scores); assay type: in vivo, female C3H/HeJ inbred mice (Mus musculus)
Excerpt: The objective of this study was to assess the effects of the test article Compound A, an alpha helix mimetic β-catenin inhibitor compound, in a murine model of bleomycin-induced dermal fibrosis. Compound A is 4-(((6S,9S,9aS)-1-(benzylcarbamoyl)-2,9-dimethyl-4,7-dioxo-8-(quinolin-8-ylmethyl)octahydro-1H-pyrazino[2,1-c][1,2,4]triazin-6-yl)methyl)phenyl dihydrogen phosphate. Negative and positive control articles were phosphate buffered saline (PBS) and dexamethasone (DEX, a known treatment for scleroderma), respectively.
The high-dose (0.5 mg/mL) dosing solution of test article was prepared by mixing 4 mL of test article (stock solution at […]) with 36 mL of PBS. The low-dose (0.05 mg/mL) dosing solution was prepared by mixing 4 mL of the high-dose test article dosing solution (0.5 mg/mL) with 36 mL of PBS. The DEX dosing solution (1 mg/mL) was prepared by mixing 1 mL of the DEX stock solution (3 mg/mL) with 2 mL of PBS. The test and positive control articles were prepared once weekly, aliquoted and stored at 4° C. protected from light.
Forty-five female C3H/HeJ inbred mice (Mus musculus) at ages of approximately 6 weeks were obtained from Jackson Laboratory (Bar Harbor, Me.) for use in the study. Mice were selected for the study since these animals are an accepted species frequently used in pre-clinical evaluation of drugs intended for human use.
(§1) Dermal fibrosis was induced locally by six weeks of once-daily subcutaneous injections of bleomycin (0.1 U in 0.1 mL) into a defined area on the back of each mouse. Test and control articles were administered by twice-daily intraperitoneal injection starting from Day 14 (i.e., two weeks after the initiation of bleomycin injection). For mice of Groups 1-4, test/control article were administered (BID, IP) for four weeks, starting from Day 14 (i.e., two weeks after the initial bleomycin injection) administration was performed twice daily. Group 1 received negative control article (PBS) at 200 μL/mouse. Groups 2 and 3 received low- and high-dose test article dosing solutions (0.05 and 0.5 mg/mL Compound A) at doses of 0.5 and 5 mg/kg, respectively. Group 4 received DEX dosing solution (1 mg/mL) at doses of 1 mg/kg. […]
Mice were euthanized on Day 42, i.e., following six weeks of bleomycin injection and four weeks of test/control article treatment. A full gross necropsy was performed on each mouse, and any macroscopic abnormality was recorded. […]
Formalin-fixed skin and lung tissues from each mouse were processed for histopathology. […] Slides were evaluated for dermal fibrosis and dermal inflammation. […] Dermal fibrosis and inflammation were scored using the industry standard 5-point scoring system as follows: 0=no significant changes; 1=trace to minimal severity; 2=mild severity; 3=moderate severity; 4=marked severity. […]

[2] = body weight in bleomycin-injected mice; assay type: in vivo, female C3H/HeJ inbred mice (Mus musculus); settings: Group 4: bleomycin plus DEX 1 mg/kg IP BID; differences among groups at sacrifice not significant (P>0.05)
Protocol: as §1, with “mg/kg. For animals of Groups 2-4, doses were administered at dose volumes of 10 mL/kg, and dose volumes for individual animals were recalculated once weekly based on the most recent body weights. Animals were administered bleomycin and test and control articles in two cohorts, with dosing staggered by one day. Cohort A was composed of the first five animals in each group [x01-x05, where x denoted the study group number (1, 2, 3, or 4)]. Cohort B was composed of the remaining animals (x06-x10).” for “mg/kg.”

| SMILES | dermal sclerosis scores vs vehicle-treated mice (FIG. 1) ([1]; Compound A at either dose (0.5 and 5 mg/kg IP BID Days 14-41), Day 42, P<0.01) | dermal fibrosis (summary) ([1]; bleomycin-injected mice, treatment IP BID Days 14-41) | dermal inflammation scores ([1]; bleomycin-injected mice, Compound A 0.5 and 5 mg/kg IP BID Days 14-41, Day 42 histopathology, 0-4 score) | amount of dermal fibrosis (qualitative histopathology) ([1]; both test article-treated groups (0.5 and 5 mg/kg IP BID), Day 42) | decrease in mean body weight [2] |
| --- | --- | --- | --- | --- | --- |
| C[C@H]1[C@H]2N(C(=O)CN(C)N2C(=O)NCc2ccccc2)[C@@H](Cc2ccc(OP(=O)(O)O)cc2)C(=O)N1Cc1cccc2cccnc12 [Compound A, 4-(((6S,9S,9aS)-1-(benzylcarbamoyl)-2,9-dimethyl-4,7-dioxo-8-(quinolin-8-ylmethyl)octahydro-1H-pyrazino[2,1-c][1,2,4]triazin-6-yl)methyl)phenyl dihydrogen phosphate] | significant decrease | ameliorated | did not significantly affect | mildly reduce | – |
| C[C@@H]1C[C@H]2[C@@H]3CCC4=CC(=O)C=C[C@]4(C)[C@@]3(F)[C@@H](O)C[C@]2(C)[C@@]1(O)C(=O)CO [DEX, dexamethasone] | – | – | – | – | largest decrease |
